Source: article PMC4357465, “Tool Compounds Robustly Increase Turnover of an Artificial Substrate by Glucocerebrosidase in Human Brain Lysates” (PLoS ONE, 2015)
Several values for one entry are separate records, joined by “and”; a condition that tells them apart may be missing. Equal entries are not always repeated. Entries after “also recorded” stand apart in the source; their conditions may differ. Where two headings read alike, the source gives them in different places.

Experiments:
Type in all cases: biochemical
purified human GBA1 = molecular target: T1, purified human GBA1 (Homo sapiens, UniProt P04062); assay: GBA1 enzymatic cell-free assay, turnover of 4MUG
T1 construct: purchased R&D Systems 7410-GH-10; host or cells: alternatively made in house: baculovirus (pFastBac-1), expressed in SF-9 or SF-21 cells, purified from conditioned media
T1 sequence (P04062 40-536): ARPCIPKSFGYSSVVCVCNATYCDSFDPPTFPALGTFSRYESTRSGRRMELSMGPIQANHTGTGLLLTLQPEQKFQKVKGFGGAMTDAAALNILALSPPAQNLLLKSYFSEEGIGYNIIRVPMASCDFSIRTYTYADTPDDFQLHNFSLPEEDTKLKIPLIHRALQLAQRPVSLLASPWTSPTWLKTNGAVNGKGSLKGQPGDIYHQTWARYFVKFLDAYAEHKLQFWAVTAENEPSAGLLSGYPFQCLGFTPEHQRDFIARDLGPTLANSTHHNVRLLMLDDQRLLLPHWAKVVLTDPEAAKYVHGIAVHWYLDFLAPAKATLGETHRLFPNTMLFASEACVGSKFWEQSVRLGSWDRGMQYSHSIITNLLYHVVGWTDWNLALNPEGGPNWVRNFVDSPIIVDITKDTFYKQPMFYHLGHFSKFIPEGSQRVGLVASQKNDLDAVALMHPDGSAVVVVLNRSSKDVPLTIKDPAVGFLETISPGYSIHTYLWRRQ
Experimental: (§1) After incubation, 100 μl of assay buffer was added to the plate. The assay buffer was composed of 0.1 M citric acid and 0.2 M sodium phosphate dibasic adjusted to pH = 5.4 unless stated otherwise (McIlvaine Buffer). […] For IC50 and EC50 experiments using compounds an assay buffer of pH 5.4 was used.
(§2) The substrate, 4-methylumbelliferyl β-D-glucopyranoside (4MUG, Sigma, M3633) was then added to the plate to a final concentration of 1.7 mM (25 μl). 4MUG was freshly solubilized in water at 37°C prior to each experiment. The recombinant protein, compound, assay buffer, and substrate were incubated at 37°C for 30 minutes.
The specific activity was calculated off the 4MU standard curve by converting the relative fluorescence units (RFUs) to the concentration of the fluorescent product (GraphPad Prism 5.1). This interpolated value was then used to calculate the specific activity of the recombinant protein which was expressed as nmol/hr/ng protein for recombinant protein and nmol/hr/mg for tissue lysates (GBA1 tissue assay). The standard curve was always diluted in the same assay buffer as the samples, including the same pH. For experiments testing activity of GBA1 at different pH, a standard curve for each pH condition was used to calculate specific activity. When testing different pH conditions, buffer solutions were adjusted to obtain the desired pH using the McIlvaine’s Buffer recipe, and the pH of the buffer was verified. All assay buffers used in the pH experiments contained sodium taurocholate to a final concentration of 3.1 mM.
(§3) In experiments directly comparing enzymatic activities of GBA1, GBA2 and GBA3 (S1 Fig., S2 Fig. c, d) the following conditions were used. […] A 10-fold intermediate solution of compound serial dilution was prepared in an assay buffer; half log dilutions were used. […] 2 mM solution of 4MUG was prepared in an assay buffer. To start the reaction, 4.5 μl/well of this solution was added to the enzyme plate and was incubated for 30 minutes at 37°C. To stop the reaction, a 1M glycine solution, adjusted to pH = 10 using 1M NaOH was used. […] To test the effect of sodium taurocholate (Sigma, T4009), the assay was performed using the same procedure described in this paragraph. The assay buffer contained either 0mM (same as above), 3 mM, 7 mM or 20 mM Sodium Taurocholate.

[1] = test system: GBA1 in lysates from human cortex; assay: GBA1 tissue assay, 4MUG turnover in human cortex lysates; conditions: human cortex lysate 10 μg, without sodium taurocholate
Experimental: (§4) Brain lysates were prepared by mechanical homogenization of mouse brain and human cortex in 10x weight/volume of the homogenization buffer used in the GBA1 enzymatic cell-free assay (250 mM Sucrose, 10 mM Tris pH = 7.5, 1 mM EDTA, 0.25% Triton X-100 solution, protease inhibitors, phosphatase inhibitors I and III, PMSF). Human cortex was acquired from brain banks (Tissue Solutions: http://www.tissue-solutions.com; Proteogenex: http://www.proteogenex.com). Human cortex samples were obtained from deceased aged Caucasian subjects without any diagnosis of neurodegenerative disorders. Mouse brain was obtained from 4–7 month old C57BL/6J mice. All mouse experiments were performed in accordance with the specifications of both the National Institutes of Health Guide for the Care and Use of Laboratory Animals, studies were approved by Pfizer’s Internal Animal Care and Use Committee (IACUC).
(§5) Prior to 30 min lysis on ice, human brain samples were also sonicated for 15 seconds as this step was needed to fully extract GBA1 (data not shown). Samples were then centrifuged at 20,000g for 15 minutes at 4°C. Supernatant was collected, and used for activity assays and Western blots. Protein concentration was determined using the Pierce BCA protein assay kit. Tissue lysates and pellets were stored at -80°C until use. For enzymatic activity assays, lysates were subjected only to one free-thaw cycle. Independent replicates were obtained using brain lysates from either different human subjects or different mice.
(§6) GBA1 activity in tissues was measured using the assay conditions described in the previous section. 10 μg of protein/well was used for the activity experiments, unless stated otherwise. Brain tissue lysates were diluted to 0.4 μg/ μl of protein in the same homogenization buffer, as described above. 25 μl of diluted lysate was added to the plate (Costar, 7200567). Lysates were then incubated on ice in the presence or absence of a compound for 30 minutes. 100 μl of assay buffer was then added to the plate. The same assay buffer was used as in the cell free/recombinant experiments and processed as described above.

[2] = molecular target: T2, GBA1 in lysates from human cortex (Homo sapiens, UniProt P04062); assay: as above; conditions: human cortex lysate 10 μg, with sodium taurocholate
T2 construct: Human cortex samples were obtained from deceased aged Caucasian subjects without any diagnosis of neurodegenerative disorders; tissue Tissue Solutions; Proteogenex; host or cells: human cortex (post mortem)
T2 sequence (P04062 40-536): T1 sequence (P04062 40-536)
Experimental: as §4, §5, §6

recombinant GBA3 = molecular target: T3, recombinant GBA3 (Homo sapiens, UniProt Q9H227); assay: cell-free 4MUG assay with recombinant GBA3; conditions: for less potent against GBA3 than GBA1: selectivity GBA1 over GBA3
T3 construct: purchased R&D Systems 5969-GH-10
T3 sequence (Q9H227 1-469): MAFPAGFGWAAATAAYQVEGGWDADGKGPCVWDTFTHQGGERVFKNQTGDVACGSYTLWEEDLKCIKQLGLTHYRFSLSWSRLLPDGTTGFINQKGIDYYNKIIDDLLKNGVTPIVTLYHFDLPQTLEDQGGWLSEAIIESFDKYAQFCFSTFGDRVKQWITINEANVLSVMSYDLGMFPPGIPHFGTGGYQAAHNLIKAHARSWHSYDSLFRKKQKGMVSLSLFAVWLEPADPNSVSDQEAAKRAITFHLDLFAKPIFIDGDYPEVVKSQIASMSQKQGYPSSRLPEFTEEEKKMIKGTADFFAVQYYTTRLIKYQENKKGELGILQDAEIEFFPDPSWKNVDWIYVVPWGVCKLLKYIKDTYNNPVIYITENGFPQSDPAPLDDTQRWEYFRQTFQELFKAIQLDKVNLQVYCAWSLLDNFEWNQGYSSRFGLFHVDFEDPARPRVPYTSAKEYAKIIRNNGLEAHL
Experimental: as §1, §2, §3

O[C@H]1[C@H](O)[C@@H](O)[C@@H]2O[C@@H]2[C@@H]1O [CBE]
inhibition of GBA1 activity (purified human GBA1; 1 mM): more than 90% | % inhibition - NaTc ([1]; 1mM): 31 ± 8% and ~ 30% | % inhibition + NaTc ([2]; 1mM): 86 ± 4% and ~ 90% | effect on activity of recombinant GBA3 (recombinant GBA3; dose response, within the concentrations tested): did not inhibit; also recorded: does not alter activity

OC[C@H]1CNC[C@@H](O)[C@@H]1O [Isofagomine, isofagomine]
inhibition at 1 µM (purified human GBA1; read-out: inhibition of GBA1 activity): > 90% | inhibition at 1 µM (purified human GBA1; with sodium taurocholate, read-out: GBA1 % inhibition + NaTc): 95.9 ± 3.2% | inhibition at 1 µM (purified human GBA1; without sodium taurocholate, read-out: GBA1 % inhibition - NaTc): 92.1 ± 2.3% | % inhibition - NaTc ([1]; 1 μM): 27 ± 4% | % inhibition - NaTc ([1]; 1 μM, listed as isofagomine): ~ 30% | % inhibition + NaTc ([2]; 1 μM): ~ 90% | inhibition at 1 µM ([2]; 1 μM, read-out: % inhibition + NaTc): 92 ± 2% | effect on GBA3 activity (recombinant GBA3; 1 μM): did not have any substantial effect | less potent against GBA3 than GBA1 (recombinant GBA3): > 100 fold | less potent against GBA3 than GBA1 (recombinant GBA3; listed as isofagomine): ≥ 100 fold
